In patent US5571833A, “Tryptamine analogues, their synthesis and their use as 5-HT1 -like or 5-HT2 receptor agonists” (SmithKline Beecham plc, priority 1991, dated 1996):
pEC50: −log10 of the molar value. Counter-ions that a name gives are not always drawn.

Tests used:
[1] = target: T1, 5-HT1-like receptor (dog saphenous vein) (Canis lupus familiaris, UniProt P79250); assay: 5-HT1-Like Receptor Screen, Dog Saphenous Vein (contraction of helicoids); assay type: cell-based
T1 construct: Helicoids of dog saphenous vein were set up; from tissue; host or cells: dog saphenous vein (helicoids)
T1 sequence (P79250 whole entry): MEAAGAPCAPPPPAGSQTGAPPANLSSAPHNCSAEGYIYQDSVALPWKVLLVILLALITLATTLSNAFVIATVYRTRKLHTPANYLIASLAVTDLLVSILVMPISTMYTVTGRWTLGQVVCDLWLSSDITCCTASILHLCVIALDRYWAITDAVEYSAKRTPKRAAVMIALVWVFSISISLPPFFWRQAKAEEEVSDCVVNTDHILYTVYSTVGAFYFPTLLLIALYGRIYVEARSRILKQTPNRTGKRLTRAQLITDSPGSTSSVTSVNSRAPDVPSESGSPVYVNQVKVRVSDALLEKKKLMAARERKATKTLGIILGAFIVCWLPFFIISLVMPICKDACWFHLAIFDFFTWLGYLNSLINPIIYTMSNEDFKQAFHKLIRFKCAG
Method: 5-HT1 -Like Receptor Screen
Helicoids of dog saphenous vein were set up at 37° C. in modified Krebs solution at a resting force of 10 mN. The solution also contained 1 μmol/l each of ketanserin, prazosin, atropine and mepyramine, 6 μmol/l cocaine and 200 μmol/l ascorbate. Nearly […] contractions were measured with force transducers on a polygraph. The tissues were exposed twice to 5-hydroxytryptamine (5-HT) 2 μmol/l followed by washes. A cumulative concentration-effect curve to the test compound was determined, followed by a curve to 5-HT in the presence of the highest used concentration of test compound. Contractions caused by the test compound were compared with those caused by 5-HT. The intrinsic activity of the test compound was calculated as the ratio of the maximum test compound-induced effect over the effect caused by 2 μmol/l 5-HT. The EC50 of the test compound was estimated from the corresponding effect curve. When appropriate equilibrium dissociation constants Kp were estimated by the method of Marano & Kaumann (1976, J. Pharmacol. Exp. Ther. 198, 518-525).

[2] = target: T2, rabbit basilar artery (5-HT1-like receptor) (Oryctolagus cuniculus, UniProt P49144); assay: Rabbit Basilar Artery (isometric tension of isolated ring segments); assay type: cell-based
T2 construct: from tissue; host or cells: rabbit basilar artery, endothelium removed (ring segments)
T2 sequence (P49144 whole entry): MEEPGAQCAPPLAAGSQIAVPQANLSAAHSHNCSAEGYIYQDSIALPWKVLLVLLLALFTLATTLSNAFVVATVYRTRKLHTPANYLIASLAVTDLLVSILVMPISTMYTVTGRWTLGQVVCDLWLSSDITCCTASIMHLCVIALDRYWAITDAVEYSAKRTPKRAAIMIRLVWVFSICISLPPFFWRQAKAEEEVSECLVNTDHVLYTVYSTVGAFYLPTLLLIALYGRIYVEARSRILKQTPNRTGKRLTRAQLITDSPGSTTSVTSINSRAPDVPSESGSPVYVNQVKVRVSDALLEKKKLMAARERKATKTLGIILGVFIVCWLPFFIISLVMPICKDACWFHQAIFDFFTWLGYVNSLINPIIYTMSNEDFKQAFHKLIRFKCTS
Method: Experiments were performed in intracranial arteries from rabbit isolated basilar artery in a similar method to one described previously (Parsons and Whalley, 1989. Eur J Pharmacol 174, 189-196.).
In brief, rabbits were killed by overdose with anaesthetic (sodium pentobarbitone). The whole brain was quickly removed and immersed in ice cold modified Kreb's solution and the basilar artery removed with the aid of a dissecting microscope. The Krebs solution was of the following composition (mM) Na^+ (120); K^+ (5); Ca^2+ (2.25); Mg^2+ (0.5); Cl^- (98.5); SO4^2^- (1); EDTA (0.04), equilibrated with 95% O2 /5% CO2. The endothelium was removed by a gentle rubbing of the lumen with a fine metal wire. Arteries were then cut into ring segments (ca 4-5 mm wide) and set up for recording of isometric tension in 50 ml tissue baths in modified Krebs solution with the additional supplement of (mM); […] (20); fumarate (10); pyruvate (5); L-glutamate (5) and glucose (10). The arteries were then placed under a resting force of 3-4 mN maintained at 37° C. and the solution bubbled with 95% O2 /5% CO2.
After tests for initial reactivity with 90 mM KCl depolarising solution and for lack of acetylcholine-induced relaxation of 5-HT ([…]) precontraction, cumulative concentration-effect curves ([…]) to 5-HT were constructed in the presence of ascorbate […], cocaine […], indomethacin […], ketanserin […] and prazosin […].
Following a 45-60 min wash period, cumulative concentration-effect curves to the test compounds or 5-HT (as a time match control) were constructed in the presence of ascorbate, indomethacin, cocaine, ketanserin and prazosin.

SMILES: CCCOc1ccc2[nH]cc(CCN(C)C)c2c1Cl [3(i), 3-(2-Dimethylaminoethyl)-4-chloro-5-n-propyloxy-indole fumarate]
- pEC50 [1]: 4.82 to 6.70
- pEC50 [2]: 5.96 to 6.77

SMILES: COc1ccc2[nH]cc(CCN(C)C)c2c1Cl [6(i), 3-(2-Dimethylaminoethyl)-4-chloro-5-methoxyindole fumarate]
- pEC50 [1]: 4.82 to 6.70
- pEC50 [2]: 5.96 to 6.77

SMILES: NCCc1c[nH]c2ccc(OCc3ccccc3)c(Cl)c12 [Example 1, 3-(2-amino-ethyl)-4-chloro-5-benzyloxyindole hydrochloride]
- pEC50 [1]: 4.82 to 6.70

SMILES: NCCc1c[nH]c2ccc(O)c(Cl)c12 [Example 2, 3-(2-Aminoethyl)-4-chloro-5-hydroxyindole fumarate]
- pEC50 [1]: 4.82 to 6.70
- pEC50 [2]: 5.96 to 6.77

SMILES: CCCOc1ccc2[nH]cc(CCN)c2c1Cl [Example 3(ii), 3-(2-aminoethyl)-4-chloro-5-n-propyloxyindole fumarate]
- pEC50 [1]: 4.82 to 6.70

SMILES: CN(C)CCc1c[nH]c2ccc(OCc3ccccc3)c(Cl)c12 [Example 4, 3-(2-Dimethylaminoethyl)-4-chloro-5-benzyloxyindole hydrochloride]
- pEC50 [2]: 5.96 to 6.77

SMILES: CN(C)CCc1c[nH]c2ccc(O)c(Cl)c12 [Example 5, 3-(2-Dimethylaminoethyl)-4-chloro-5-hydroxyindole oxalate]
- pEC50 [1]: 4.82 to 6.70
- pEC50 [2]: 5.96 to 6.77

SMILES: COc1ccc2[nH]cc(CCN)c2c1Cl [Example 6(ii), 3-(2-aminoethyl)-4-chloro-5-methoxyindole fumarate]
- pEC50 [1]: 4.82 to 6.70

SMILES: COc1ccc2[nH]cc(CCN(C)C)c2c1Br [Example 7, 3-(2-Dimethylaminoethyl)-4-bromo-5-methoxyindole hemifumarate]
- pEC50 [1]: 4.82 to 6.70

SMILES: CCCNCCc1c[nH]c2ccc(OC)c(Cl)c12 [Example 8, 3-(2-n-Propylaminoethyl)-4-chloro-5-methoxyindole fumarate]
- pEC50 [1]: 4.82 to 6.70

SMILES: CNCCc1c[nH]c2ccc(OC)c(Cl)c12 [Example 9, 3-(2-Methylaminoethyl)-4-chloro-5-methoxyindole hemifumarate]
- pEC50 [1]: 4.82 to 6.70

SMILES: CCCCOc1ccc2[nH]cc(CCN(C)C)c2c1Cl [Example 11, 3-(2-Dimethylaminoethyl)-4-chloro-5-n-butyloxyindole hemifumarate]
- pEC50 [1]: 4.82 to 6.70
- pEC50 [2]: 5.96 to 6.77

SMILES: CCCOc1ccc2[nH]cc(CCNC)c2c1Cl [Example 13, 3-(2-Methylaminoethyl)-4-chloro-5-n-propoxyindole hemifumarate]
- pEC50 [1]: 4.82 to 6.70

SMILES: CCCOc1ccc2[nH]cc(CCN(C)C)c2c1Br [Example 14, 3-(2-Dimethylaminoethyl)-4-bromo-5-n-propoxyindole hemifumarate]
- pEC50 [1]: 4.82 to 6.70
- pEC50 [2]: 5.96 to 6.77

SMILES: CC(C)Oc1ccc2[nH]cc(CCN)c2c1Cl [Example 15, 3-(2-Aminoethyl)-4-chloro-5-iso-propoxyindole fumarate]
- pEC50 [1]: 4.82 to 6.70

SMILES: CCCOc1ccc2[nH]cc(CCN)c2c1Br [Example 16, 3-(2-Aminoethyl)-4-bromo-5-n-propoxyindole oxalate]
- pEC50 [1]: 4.82 to 6.70

SMILES: CC(C)Oc1ccc2[nH]cc(CCN(C)C)c2c1Cl [Example 17, 3-(2-Dimethylaminoethyl)-4-chloro-5-isopropoxyindole oxalate]
- pEC50 [1]: 4.82 to 6.70

SMILES: CCCOc1ccc2[nH]cc(CCN)c2c1C [Example 18b, 3-(2-aminoethyl)-4-methyl-5-n-propyloxyindole oxalate]
- pEC50 [2]: 5.96 to 6.77

SMILES: CCCOc1ccc2[nH]cc(CCN(C)CC)c2c1Cl [Example 19, 3-(2-(N-methyl-N-ethylamino)ethyl)-4-chloro-5-n-propyloxyindole oxalate]
- pEC50 [2]: 5.96 to 6.77

SMILES: CCCOc1ccc2[nH]cc(CCN(C)C)c2c1I [Example 20, 3-(2-(Dimethylamino)ethyl)-4-iodo-5-n-propyloxy indole oxalate]
- pEC50 [2]: 5.96 to 6.77

SMILES: CN(C)CCc1c[nH]c2ccc(OCC(C)(C)C)c(Cl)c12 [Example 22, 3-(2-(Dimethylamino)ethyl)-4-chloro-5-neopentyloxy indole oxalate]
- pEC50 [2]: 5.96 to 6.77
